The text below walks through data of ChEMBL document CHEMBL4417631, “Oral peptide inhibitors of interleukin-23 receptor and their use to treat inflammatory bowel diseases” (2017).

Test [1] has as its target T1, Interleukin-23 receptor (Homo sapiens, UniProt Q5VWK5).
T1 sequence (Q5VWK5 whole entry): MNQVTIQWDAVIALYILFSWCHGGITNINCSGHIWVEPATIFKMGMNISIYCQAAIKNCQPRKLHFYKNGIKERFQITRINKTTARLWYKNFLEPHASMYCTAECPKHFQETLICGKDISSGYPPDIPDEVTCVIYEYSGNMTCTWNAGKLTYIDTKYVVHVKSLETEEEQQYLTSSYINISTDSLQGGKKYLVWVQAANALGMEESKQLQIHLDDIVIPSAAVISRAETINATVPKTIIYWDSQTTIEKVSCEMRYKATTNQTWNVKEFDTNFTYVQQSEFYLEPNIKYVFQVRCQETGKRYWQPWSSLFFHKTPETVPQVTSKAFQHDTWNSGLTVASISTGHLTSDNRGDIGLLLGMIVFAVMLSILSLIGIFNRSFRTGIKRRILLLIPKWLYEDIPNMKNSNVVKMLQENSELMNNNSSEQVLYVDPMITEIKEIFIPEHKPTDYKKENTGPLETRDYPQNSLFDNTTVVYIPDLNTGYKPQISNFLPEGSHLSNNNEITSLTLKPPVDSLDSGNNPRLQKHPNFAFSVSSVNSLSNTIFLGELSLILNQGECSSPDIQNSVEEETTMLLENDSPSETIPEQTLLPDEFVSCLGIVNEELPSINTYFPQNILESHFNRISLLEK
Nature of the test: Inhibition of interleukin-23 binding to human interleukin-23 receptor incubated for 2 hrs by competitive binding ELISA. For orientation: ELISA stands for enzyme-linked immunosorbent assay.

Test [2] concerns the target T1, Interleukin-23 receptor. The test is described as follows: Inhibition of interleukin-23 receptor in human DB cells assessed as reduction in IL-23-stimulated STAT3 phosphorylation incubated for 30 mins by HTRF assay. Format: cell-based. Background: TR-FRET usually uses a lanthanide donor and a delayed reading to cut background.

*1 amine or outer side, *2 acyl side, *3 side chain or, on linkers, in order; H or OH if unused. Where a SMILES comes first, the peptide text is derived from it. Bridges are numbered along the chain shown (N, C = ends). Roman numbers before positions name the chains, in order. [ ]: non-standard residue; d: D form. Abu(4-yl) = O=C([C@H](CC[*:3])N[*:1])[*:2]; 2Nal = N[C@@H](Cc1ccc2ccccc2c1)C(=O)O; Diglycolyl = O=C(COCC(=O)[*:2])[*:1]; AEF = NCCOc1ccc(C[C@H](N)C(=O)O)cc1; Pen = CC(C)(S)[C@H](N)C(=O)O; Aib = CC(C)(N)C(=O)O Where only a bound is given, the exact number is not on record here.

For `CC(=O)N[C@H](C(=O)N[C@@H](CC(N)=O)C(=O)N[C@H](C(=O)N[C@@H](Cc1c[nH]c2ccccc12)C(=O)N[C@@H](CCC(N)=O)C(=O)N[C@H](C(=O)N[C@@H](Cc1ccc(OCCN)cc1)C(=O)N[C@@H](Cc1ccc2ccccc2c1)C(=O)N[C@@](C)(CCCCN)C(=O)N[C@@H](CCC(=O)O)C(=O)N[C@@H](CC(N)=O)C(=O)NCC(N)=O)C(C)(C)S)[C@@H](C)O)C(C)(C)S`, the 50% inhibitory concentration (IC50) on Interleukin-23 receptor [1] and on Interleukin-23 receptor [2] was under 10 nM in each case.
Take `CC(=O)N[C@@H](CS)C(=O)N[C@@H](C)C(=O)N[C@@H](CC(=O)O)C(=O)N[C@@H](Cc1c[nH]c2ccccc12)C(=O)N[C@H](C(=O)N[C@@H](CS)C(=O)N[C@@H](Cc1ccc(O)cc1)C(=O)N[C@@H](Cc1c[nH]c2ccccc12)C(=O)N[C@H](Cc1cnc[nH]1)C(=O)N[C@H](C(=O)N[C@@H](Cc1ccccc1)C(=O)NCC(=O)NCCOCC(=O)N[C@H](CCCCN)C(N)=O)[C@@H](C)O)C(C)C`: the IC50 at Interleukin-23 receptor [1] and on Interleukin-23 receptor [2] was 100 to 1000 nM each time.
Regarding `CC(=O)N[C@H]1CCSC[C@@H](C(=O)N[C@@H](Cc2ccc(F)c(F)c2)C(=O)N[C@@H](Cc2ccc3ccccc3c2)C(=O)NC(C)(C)C(=O)N[C@@H](CCC(=O)O)C(=O)N[C@@H](CC(N)=O)C(=O)NCC(N)=O)NC(=O)[C@H](CCC(N)=O)NC(=O)[C@H](Cc2c[nH]c3ccccc23)NC(=O)[C@H]([C@@H](C)O)NC(=O)[C@H](CCC(N)=O)NC1=O`, the IC50 at Interleukin-23 receptor [1] lay within 25 to 100 nM; at Interleukin-23 receptor [2] it was 10 to 25 nM.
The matching figures for `CC(=O)N[C@H](C(=O)N[C@H](C(=O)N[C@H](C(=O)N[C@@H](Cc1c[nH]c2ccccc12)C(=O)N[C@@H](CCC(N)=O)C(=O)N[C@H](C(=O)N[C@@H](Cc1ccc(OCCN)cc1)C(=O)N[C@@H](Cc1ccc2ccccc2c1)C(=O)N[C@@](C)(CCCCN)C(=O)N[C@@H](CCC(=O)O)C(=O)N[C@@H](CC(N)=O)C(=O)NCC(N)=O)C(C)(C)S)[C@@H](C)O)[C@@H](C)O)C(C)(C)S`: 10 to 25 nM and under 10 nM.
The like results for `CC(=O)N[C@H]1CCSC[C@@H](C(=O)N[C@@H](Cc2ccc(OCCNC(=O)COCC(=O)NCCOc3ccc(C[C@H](NC(=O)[C@@H]4CSCC[C@H](NC(C)=O)C(=O)N[C@@H](CCC(N)=O)C(=O)N[C@@H]([C@@H](C)O)C(=O)N[C@@H](Cc5c[nH]c6ccccc56)C(=O)N[C@@H](CCC(N)=O)C(=O)N4)C(=O)N[C@@H](Cc4ccc5ccccc5c4)C(=O)NC(C)(C)C(=O)N[C@@H](CCC(N)=O)C(=O)N[C@@H](CC(N)=O)C(=O)NCC(N)=O)cc3)cc2)C(=O)N[C@@H](Cc2ccc3ccccc3c2)C(=O)NC(C)(C)C(=O)N[C@@H](CCC(N)=O)C(=O)N[C@@H](CC(N)=O)C(=O)NCC(N)=O)NC(=O)[C@H](CCC(N)=O)NC(=O)[C@H](Cc2c[nH]c3ccccc23)NC(=O)[C@H]([C@@H](C)O)NC(=O)[C@H](CCC(N)=O)NC1=O` (I: Ac-[Abu(4-yl)]QTWQC[AEF][2Nal][Aib]QNG-NH2 / II: Ac-[Abu(4-yl)]QTWQC[AEF][2Nal][Aib]QNG-NH2; thioether I:1-I:6, II:1-II:6; linker I:7-II:7 via Diglycolyl) were, in that order, 25 to 100 nM and 10 to 25 nM.
For `CC(=O)N[C@@H](CS)C(=O)N[C@H](C(=O)N[C@@H](CC(=O)O)C(=O)N[C@@H](Cc1c[nH]c2ccccc12)C(=O)N[C@@H](CCCCN)C(=O)N[C@@H](CS)C(=O)N[C@@H](Cc1ccc(O)cc1)C(=O)N[C@@H](Cc1c[nH]c2ccccc12)C(=O)N[C@@H](Cc1cnc[nH]1)C(=O)N[C@H](C(=O)N[C@@H](Cc1ccccc1)C(=O)NCC(N)=O)[C@@H](C)O)[C@@H](C)O`, the IC50 at Interleukin-23 receptor [1] and on Interleukin-23 receptor [2] was 100 to 1000 nM in each case.
As to `CC(=O)N[C@H](C(=O)N[C@@H](CO)C(=O)N[C@H](C(=O)N[C@@H](Cc1c[nH]c2ccccc12)C(=O)N[C@@H](CCC(N)=O)C(=O)N[C@H](C(=O)N[C@@H](Cc1ccc(OCCN)cc1)C(=O)N[C@@H](Cc1ccc2ccccc2c1)C(=O)N[C@@](C)(CCCCN)C(=O)N[C@@H](CCC(=O)O)C(=O)N[C@@H](CC(N)=O)C(=O)NCC(N)=O)C(C)(C)S)[C@@H](C)O)C(C)(C)S`, the figures for the IC50 at Interleukin-23 receptor [1] and at Interleukin-23 receptor [2] were 10 to 25 nM and under 10 nM, respectively.
The matching figures for `CC(=O)N[C@@H](CS)C(=O)N[C@@H](CCC(N)=O)C(=O)N[C@H](C(=O)N[C@@H](Cc1c[nH]c2ccccc12)C(=O)N[C@@H](CCC(N)=O)C(=O)N[C@@H](CS)C(=O)N[C@@H](Cc1ccc(O)cc1)C(=O)N[C@@H](Cc1c[nH]c2ccccc12)C(=O)N[C@@H](CCC(C)C)C(=O)N[C@@H](CCC(=O)O)C(=O)N[C@@H](CC(N)=O)C(=O)NCC(=O)N[C@@H](CCCNC(=N)N)C(N)=O)[C@@H](C)O`: over 10000 nM and over 1000 nM.
The like results for `CC(=O)NCCCC[C@H](NC(=O)[C@](C)(CCCCN)NC(=O)[C@H](Cc1c[nH]c2ccccc12)NC(=O)[C@H](Cc1ccc(OCCN)cc1)NC(=O)[C@@H]1CSCC[C@H](NC(C)=O)C(=O)N[C@@H](CCC(N)=O)C(=O)N[C@@H]([C@@H](C)O)C(=O)N[C@@H](Cc2c[nH]c3ccccc23)C(=O)N[C@@H](CCC(N)=O)C(=O)N1)C(=O)NC1CNC(=O)CNC1=O` (stereo partly drawn) were, in that order, 25 to 100 nM and under 10 nM.
`CC(=O)N[C@H]1CCSC[C@@H](C(=O)N[C@H]2Cc3ccc(cc3)OCCNC(=O)C[C@@H](C(=O)NCC(N)=O)NC(=O)[C@H](CCC(N)=O)NC(=O)[C@](C)(CC(C)C)NC(=O)[C@H](Cc3ccc4ccccc4c3)NC2=O)NC(=O)[C@H](CCC(N)=O)NC(=O)[C@H](Cc2c[nH]c3ccccc23)NC(=O)[C@H]([C@@H](C)O)NC(=O)[C@H](CCC(N)=O)NC1=O`: the IC50 at Interleukin-23 receptor [2] lay in the range of 100 to 1000 nM.
As for `CC(=O)NCCCC[C@H](NC(=O)[C@H](CCCCN)NC(=O)[C@H](Cc1ccc2ccccc2c1)NC(=O)[C@H](Cc1ccc(OCCNC(C)=O)cc1)NC(=O)[C@@H](NC(=O)[C@H](CCC(N)=O)NC(=O)[C@H](Cc1c[nH]c2ccccc12)NC(=O)[C@@H](NC(=O)[C@H](CCC(N)=O)NC(=O)[C@@H](NC(C)=O)C(C)(C)S)[C@@H](C)O)C(C)(C)S)C(=O)N[C@@H](CC(N)=O)C(=O)N[C@@H](CC(N)=O)C(N)=O`, the half-inhibitory concentration (IC50) on Interleukin-23 receptor [2] fell in the range of 25 to 100 nM.
The same measure, in the same setting: next, `CC(=O)NCCCC[C@H](NC(=O)C(C)(C)NC(=O)[C@H](Cc1ccc2ccccc2c1)NC(=O)[C@H](Cc1ccc(OCCN)cc1)NC(=O)[C@@H](NC(=O)[C@H](CCC(N)=O)NC(=O)[C@H](Cc1c[nH]c2ccccc12)NC(=O)[C@@H](NC(=O)[C@H](CCC(N)=O)NC(=O)[C@@H](NC(=O)[C@H](Cc1ccccc1)NC(C)=O)C(C)(C)S)[C@@H](C)O)C(C)(C)S)C(=O)N[C@@H](CC(N)=O)C(=O)N[C@@H](CC(N)=O)C(N)=O`: under 10 nM; `CC(=O)N[C@@H](CS)C(=O)N[C@@H](CN)C(=O)N[C@H](C(=O)N[C@@H](Cc1c[nH]c2ccccc12)C(=O)N[C@@H](CCC(N)=O)C(=O)N[C@@H](CS)C(=O)N[C@@H](Cc1ccc(O)cc1)C(=O)N[C@@H](Cc1c[nH]c2ccccc12)C(=O)N[C@@H](CCCNC(=N)N)C(=O)N[C@H](C(=O)N[C@@H](Cc1ccccc1)C(=O)NCC(=O)NCCOCC(=O)N[C@H](CCCCN)C(N)=O)C(C)C)[C@@H](C)O`: 100 nM.
On to `CC(=O)N[C@H](C(=O)NCC(=O)N[C@H](C(=O)N[C@@H](Cc1c[nH]c2ccccc12)C(=O)N[C@@H](CCC(N)=O)C(=O)N[C@H](C(=O)N[C@@H](Cc1ccc(OCCN)cc1)C(=O)N[C@@H](Cc1ccc2ccccc2c1)C(=O)N[C@@](C)(CCCCN)C(=O)N[C@@H](CCC(=O)O)C(=O)N[C@@H](CC(N)=O)C(=O)NCC(N)=O)C(C)(C)S)[C@@H](C)O)C(C)(C)S`, for which the IC50 at Interleukin-23 receptor [1] is 10 to 25 nM; at Interleukin-23 receptor [2] it was under 10 nM.
On to `COc1ccc(C[C@H](NC(=O)[C@@H](NC(=O)[C@H](CCC(N)=O)NC(=O)[C@H](Cc2c[nH]c3ccccc23)NC(=O)[C@@H](NC(=O)[C@H](CCC(N)=O)NC(=O)[C@@H](NC(C)=O)C(C)(C)S)[C@@H](C)O)C(C)(C)S)C(=O)N[C@@H](Cc2ccc3ccccc3c2)C(=O)NC(C)(C)C(=O)N[C@@H](CCCCNC(C)=O)C(=O)N[C@@H](CC(N)=O)C(=O)N[C@@H](C)C(N)=O)cc1`, for which the half-maximal inhibitory concentration (IC50) at Interleukin-23 receptor [2] is under 10 nM.
`CC(=O)N[C@H](C(=O)N[C@@H](CCC(N)=O)C(=O)N[C@H](C(=O)N[C@@H](Cc1c[nH]c2ccccc12)C(=O)N[C@@H](CCC(N)=O)C(=O)N[C@H](C(=O)N[C@@H](Cc1ccc(OCCN)cc1)C(=O)N[C@@H](Cc1ccc2ccccc2c1)C(=O)N[C@@](C)(CCCCN)C(=O)N[C@@H](CCC(=O)O)C(=O)N[C@@H](CC(N)=O)C(=O)NCC(N)=O)C(C)(C)S)[C@@H](C)O)C(C)(C)S`: the IC50 is 10 to 25 nM at Interleukin-23 receptor [1] and under 10 nM on Interleukin-23 receptor [2].
On to `CC(=O)NCCCC[C@H](NC(=O)C(C)(C)NC(=O)[C@H](Cc1ccc2ccccc2c1)NC(=O)[C@H](Cc1ccc(OCCN)cc1)NC(=O)[C@@H](NC(=O)[C@H](CCC(N)=O)NC(=O)[C@H](Cc1c[nH]c2ccccc12)NC(=O)[C@@H](NC(=O)[C@H](CCC(N)=O)NC(=O)[C@@H](NC(=O)[C@H](CCC(=O)O)NC(C)=O)C(C)(C)S)[C@@H](C)O)C(C)(C)S)C(=O)N[C@@H](CC(N)=O)C(=O)N[C@@H](CC(N)=O)C(N)=O` (Ac-E[Pen]QTWQ[Pen][AEF][2Nal][Aib]K(Ac)NN-NH2), for which the IC50 at Interleukin-23 receptor [2] is under 10 nM.

For orientation: IC50 means the concentration needed to halve the response being measured.
